Broadly, the IC50 is the concentration that gives 50% inhibition.

What all share (assay type): biochemical
Assay [1] has as its target human JAK1 (Homo sapiens, UniProt P23458). Put plainly: In vitro JAK kinase assay (HTRF, phosphorylation of a biotinylated peptide), JAK1. The note with it: 1 mM ATP. As for the experimental part: (§1) Compounds herein were tested for inhibitory activity of JAK targets according to the following in vitro assay described in Park et al., Analytical Biochemistry 1999, 269, 94-104. The catalytic domains of human JAK1 (a.a. 837-1142), JAK2 (a.a. 828-1132) and JAK3 (a.a. 781-1124) were expressed using baculovirus in insect cells and purified. The catalytic activity of JAK1, JAK2 or JAK3 was assayed by measuring the phosphorylation of a biotinylated peptide. The phosphorylated peptide was detected by homogenous time resolved fluorescence (HTRF). IC50s of compounds were measured for each kinase in the 40 μL reactions that contain the enzyme, ATP and 500 nM peptide in 50 mM Tris (pH 7.8) buffer with 100 mM NaCl, 5 mM DTT, and 0.1 mg/mL (0.01%) BSA. For the 1 mM IC50 measurements, ATP concentration in the reactions was 1 mM. Reactions were carried out at room temperature for 1 hour and then stopped with 20 μL 45 mM EDTA, 300 nM SA-APC, 6 nM Eu-Py20 in assay buffer (Perkin Elmer, Boston, Mass.). Binding to the Europium labeled antibody took place for 40 minutes and HTRF signal was measured on a PHERA star plate reader (BMG, Cary, N.C.). The Example compounds were each tested in the Example A assay (see Table 1 for data for the compounds of the examples as tested by the assay of Example A at 1 mM ATP).
For orientation: TR-FRET usually uses a lanthanide donor and a delayed reading to cut background.

Assay [2] relates to human JAK1. The description is as above. The note with it: ratio of IC50s, 1 mM ATP. As for the experimental part: as §1
The target of the next assay is human JAK2 (Homo sapiens (Human), UniProt O60674). Put plainly: In vitro JAK kinase assay (HTRF, phosphorylation of a biotinylated peptide), JAK2. Also on record: key to JAK2 IC50 (nM): +indicates an IC50 of ≦100 nM; ++indicates an IC50 of ≦1000 nM; +++indicates an IC50 of ≦2000 nM; ++++indicates an IC50 of >2000 nM; +++++indicates that the IC50 was greater than the highest concentration tested. As to conditions: 1 mM ATP. As for the experimental part: as §1
human JAK2, sequence (O60674 828-1132): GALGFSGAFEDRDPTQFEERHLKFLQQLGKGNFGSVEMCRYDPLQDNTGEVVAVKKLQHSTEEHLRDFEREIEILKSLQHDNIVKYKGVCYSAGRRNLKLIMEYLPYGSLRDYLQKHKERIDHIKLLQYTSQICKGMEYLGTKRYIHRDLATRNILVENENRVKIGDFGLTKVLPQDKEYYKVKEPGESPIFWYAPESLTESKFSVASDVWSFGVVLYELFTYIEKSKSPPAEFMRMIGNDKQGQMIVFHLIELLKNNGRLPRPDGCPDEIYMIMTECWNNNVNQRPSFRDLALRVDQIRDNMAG

Turning to `N#CC[C@H]1CC[C@H](n2/c(=N/C#N)[nH]c3cnc4ccsc4c32)CC1.O=C(O)C(F)(F)F` [Example 25, {(2E)-1-[trans-4-(Cyanomethyl)cyclohexyl]-1,3-dihydro-2H-imidazo[4,5-d]thieno[3,2-b]pyridin-2-ylidene}cyanamide trifluoroacetate], the IC50 was at most 0.1 µM against human JAK1 [1] and at most 1 µM on human JAK2. For the same compound, the JAK2/JAK1 with human JAK1 [2] is on record as over 6.

`N#CC[C@H]1CC[C@H](n2c(C3CC3)nc3cnc4ccsc4c32)CC1` [Example 26, [trans-4-(2-Cyclopropyl-1H-imidazo[4,5-b]thieno[3,2-b]pyridin-1-yl)cyclohexyl]acetonitrile]: the values for the IC50 against human JAK1 [1] and against human JAK2 were at most 0.1 µM and at most 1 µM, respectively. For the same compound, the JAK2/JAK1 with human JAK1 [2] was over 10.

As for `CC(C)c1nc2cnc3ccsc3c2n1[C@H]1CC[C@H](CC#N)CC1` [Example 27, [trans-4-(2-Isopropyl-1H-imidazo[4,5-d]thieno[3,2-b]pyridin-1-yl)cyclohexyl]acetonitrile], the IC50 on human JAK1 [1] was at most 0.1 µM; on human JAK2, at most 1 µM. Further, the JAK2/JAK1 in the assay on human JAK1 [2] is recorded as over 10.

In turn, `N#CC[C@H]1CC[C@H](n2c(C3CNC3)nc3cnc4ccsc4c32)CC1` [Example 28, [trans-4-(2-Azetidin-3-yl-1H-imidazo[4,5-d]thieno[3,2-b]pyridin-1-yl)cyclohexyl]acetonitrile] returned a 50% inhibitory concentration (IC50) against human JAK1 [1] of at most 2 µM. Moreover, the JAK2/JAK1 in the assay with human JAK1 [2] is over 7. The “JAK2 IC50 (nM)” value on human JAK2 is “+++++”.

On to `CN1CC(c2nc3cnc4ccsc4c3n2[C@H]2CC[C@H](CC#N)CC2)C1` [Example 29, {trans-4-[2-(1-Methylazetidin-3-yl)-1H-imidazo[4,5-d]thieno[3,2-b]pyridin-1-yl]cyclohexyl}acetonitrile], for which the IC50 on human JAK1 [1] was at most 1 µM; at human JAK2, at most 2 µM. Moreover, the JAK2/JAK1 in the assay with human JAK1 [2] is recorded as over 9.

The compound `CCNC(=O)C[C@H]1CC[C@H](n2c([C@@H](C)O)nc3cnc4ccsc4c32)CC1` [Example 31, N-Ethyl-2-(trans-4-{2-[(1R)-1-hydroxyethyl]-1H-imidazo[4,5-d]thieno[3,2-b]pyridin-1-yl}cyclohexyl)acetamide] had an IC50 at human JAK1 [1] of at most 1 µM. Further, the JAK2/JAK1 with human JAK1 [2] is reported as over 10. Moreover, the “JAK2 IC50 (nM)” value on human JAK2 was “+++++”.

With `C[C@@H](O)c1nc2cnc3ccsc3c2n1C1CCCC(CCC#N)C1` (stereo partly drawn) [Example 32, 3-(3-{2-[(1R)-1-Hydroxyethyl]-1H-imidazo[4,5-d]thieno[3,2-b]pyridin-1-yl}cyclohexyl)propanenitrile], the IC50 is at most 0.1 µM on human JAK1 [1] and over 2 µM at human JAK2. The JAK2/JAK1 in the assay on human JAK1 [2] was over 10.

Take `Cc1nc2cnc3ccsc3n2c1-c1ccc(CC#N)cc1` [Example 33, [4-(7-Methylimidazo[1,2-a]thieno[3,2-e]pyrazin-8-yl)phenyl]acetonitrile]: the IC50 against human JAK1 [1] was at most 0.1 µM; against human JAK2, at most 1 µM. Moreover, in the assay with human JAK1 [2], the JAK2/JAK1 is over 7.

In the case of `Cc1nc2cnc3ccsc3c2n1[C@H]1CC[C@H](CC#N)OC1` [Example 38, [(2R,5S)-5-(2-Methyl-1H-imidazo[4,5-d]thieno[3,2-b]pyridin-1-yl)tetrahydro-2H-pyran-2-yl]acetonitrile], the IC50 on human JAK1 [1] and on human JAK2 was at most 0.1 µM throughout. Besides, the JAK2/JAK1 with human JAK1 [2] is over 10.

On to `CCc1nc2cnc3ccsc3c2n1[C@H]1CC[C@H](CC#N)OC1` [Example 39, [(2R,5S)-5-(2-Ethyl-1H-imidazo[4,5-d]thieno[3,2-b]pyridin-1-yl)tetrahydro-2H-pyran-2-yl]acetonitrile], for which the IC50 against human JAK1 [1] was at most 0.1 µM; against human JAK2, at most 1 µM. Moreover, in the assay on human JAK1 [2], the JAK2/JAK1 was over 10.

In the case of `CC(C)c1nc2cnc3ccsc3c2n1[C@H]1CC[C@H](CC#N)OC1` [Example 42, [(2R,5S)-5-(2-Isopropyl-1H-imidazo[4,5-d]thieno[3,2-b]pyridin-1-yl)tetrahydro-2H-pyran-2-yl]acetonitrile], the IC50 against human JAK1 [1] was at most 0.1 µM; on human JAK2, at most 1 µM. Also, in the assay with human JAK1 [2], the JAK2/JAK1 is reported as over 10.

As for `N#CC[C@H]1CC[C@H](n2c(C3CC3)nc3cnc4ccsc4c32)CO1` [Example 43, [(2R,5S)-5-(2-Cyclopropyl-1H-imidazo[4,5-d]thieno[3,2-b]pyridin-1-yl)tetrahydro-2H-pyran-2-yl]acetonitrile], the IC50 is at most 0.1 µM against human JAK1 [1] and at most 1 µM on human JAK2. In addition, in the assay on human JAK1 [2], the JAK2/JAK1 was over 10.

Regarding `C[C@@H](O)c1nc2cnc3ccsc3c2n1[C@@H]1CC[C@@H](CC#N)OC1` [Example 44, ((2S,5R)-5-{2-[(1R)-1-Hydroxyethyl]-1H-imidazo[4,5-b]thieno[3,2-b]pyridin-1-yl}tetrahydro-2H-pyran-2-yl)acetonitrile], at human JAK1 [1], the IC50 is at most 1 µM. In addition, the JAK2/JAK1 with human JAK1 [2] is over 10. Besides, the “JAK2 IC50 (nM)” value on human JAK2 is recorded as “+++++”.

For `C[C@H](O)c1nc2cnc3ccsc3c2n1[C@H]1CC[C@H](CC#N)OC1` [Example 45, ((2R,5S)-5-{2-[(1S)-1-Hydroxyethyl]-1H-imidazo[4,5-d]thieno[3,2-b]pyridin-1-yl}tetrahydro-2H-pyran-2-yl)acetonitrile], the IC50 on human JAK1 [1] is at most 0.1 µM; against human JAK2, over 2 µM. Also, the JAK2/JAK1 in the assay on human JAK1 [2] is over 10.

Regarding `CCc1nc2cnc3ccsc3c2n1[C@H]1CC[C@H](CC#N)CC1` [Example 47, [trans-4-(2-Ethyl-1H-imidazo[4,5-d]thieno[3,2-b]pyridin-1-yl)cyclohexyl]acetonitrile], the IC50 on human JAK1 [1] was at most 0.1 µM; against human JAK2 it was at most 1 µM. The JAK2/JAK1 in the assay on human JAK1 [2] is reported as over 10.

In the case of `Cc1nc2cnc3ccsc3c2n1[C@H]1CC[C@H](CC#N)CC1` [Example 48, [trans-4-(2-Methyl-1H-imidazo[4,5-d]thieno[3,2-b]pyridin-1-yl)cyclohexyl]acetonitrile], the IC50 against human JAK1 [1] and on human JAK2 was at most 0.1 µM in each case. In the assay with human JAK1 [2], the JAK2/JAK1 is recorded as over 7.

Take `C[C@@H](O)c1nc2cnc3ccsc3c2n1[C@H]1CC[C@@H](CC#N)C1.O=C(O)C(F)(F)F` [Example 49, ((4R,3S)-3-{2-[(1R)-1-Hydroxyethyl]-1H-imidazo[4,5-d]thieno[3,2-b]pyridin-1-yl}cyclopentyl)acetonitrile trifluoroacetate]: the IC50 against human JAK1 [1] was at most 1 µM. Further, the JAK2/JAK1 with human JAK1 [2] was over 10. Also, on human JAK2, the “JAK2 IC50 (nM)” value is given as “+++++”.

On to `CCOC(=O)N1CCC[C@H](n2c([C@@H](C)O)nc3cnc4ccsc4c32)C1` [Example 50, Ethyl (3S)-3-{2-[(1R)-1-hydroxyethyl]-1H-imidazo[4,5-d]thieno[3,2-b]pyridin-1-yl}piperidine-1-carboxylate], for which the IC50 on human JAK1 [1] was at most 1 µM. Moreover, the JAK2/JAK1 with human JAK1 [2] is recorded as over 10. For the same compound, the “JAK2 IC50 (nM)” value at human JAK2 was “+++++”.

With `C[C@@H](O)c1nc2cnc3ccsc3c2n1[C@H]1CCCN(C(=O)CC#N)C1.O=C(O)C(F)(F)F` [Example 51, 3-((3S)-3-{2-[(1R)-1-Hydroxyethyl]-1H-imidazo[4,5-d]thieno[3,2-b]pyridin-1-yl}piperidin-1-yl)-3-oxopropanenitrile trifluoroacetate], the results for the IC50 against human JAK1 [1] and on human JAK2 were at most 1 µM and over 2 µM, respectively. The JAK2/JAK1 with human JAK1 [2] is recorded as over 10.

In turn, `C[C@@H](O)c1nc2cnc3ccsc3c2n1[C@H]1CCCN(C(=O)CCc2cn[nH]c2)C1` [Example 53, (1R)-1-(1-{(3S)-1-[3-(1H-Pyrazol-4-yl)propanoyl]piperidin-3-yl}-1H-imidazo[4,5-d]thieno[3,2-b]pyridin-2-yl)ethanol] came in with a half-inhibitory concentration (IC50) at human JAK1 [1] of at most 1 µM. Also, the JAK2/JAK1 in the assay on human JAK1 [2] is given as over 10. Further, the “JAK2 IC50 (nM)” value at human JAK2 is reported as “+++++”.

`C[C@@H](O)c1nc2cnc3ccsc3c2n1[C@H]1CCCN(C(=O)CCc2cccnc2)C1` [Example 54, (1R)-1-{1-[(3S)-1-(3-Pyridin-3-ylpropanoyl)piperidin-3-yl]-1H-imidazo[4,5-d]thieno[3,2-b]pyridin-2-yl}ethanol] yielded an IC50 at human JAK1 [1] of at most 1 µM. The JAK2/JAK1 in the assay on human JAK1 [2] was over 10. For the same compound, the “JAK2 IC50 (nM)” value on human JAK2 is “+++++”.

For `CC(CC(=O)N1CCC[C@H](n2c([C@@H](C)O)nc3cnc4ccsc4c32)C1)c1ccccc1` (stereo partly drawn) [Example 55, (1R)-1-{1-[(3S)-1-(3-Phenylbutanoyl)piperidin-3-yl]-1H-imidazo[4,5-d]thieno[3,2-b]pyridin-2-yl}ethanol], the IC50 against human JAK1 [1] was at most 1 µM. Also, the JAK2/JAK1 with human JAK1 [2] was over 10. Also, the “JAK2 IC50 (nM)” value on human JAK2 is recorded as “+++++”.
